Data on 13 molecules can be found in patent US7799824B2, “Quaternary salt CCR2 antagonists” (OraPharma, Inc., priority 2004, dated 2010).

In this assay the target is T1, CCR2 (Homo sapiens, UniProt P41597).
T1 sequence (P41597 1-360 isoform P41597-2): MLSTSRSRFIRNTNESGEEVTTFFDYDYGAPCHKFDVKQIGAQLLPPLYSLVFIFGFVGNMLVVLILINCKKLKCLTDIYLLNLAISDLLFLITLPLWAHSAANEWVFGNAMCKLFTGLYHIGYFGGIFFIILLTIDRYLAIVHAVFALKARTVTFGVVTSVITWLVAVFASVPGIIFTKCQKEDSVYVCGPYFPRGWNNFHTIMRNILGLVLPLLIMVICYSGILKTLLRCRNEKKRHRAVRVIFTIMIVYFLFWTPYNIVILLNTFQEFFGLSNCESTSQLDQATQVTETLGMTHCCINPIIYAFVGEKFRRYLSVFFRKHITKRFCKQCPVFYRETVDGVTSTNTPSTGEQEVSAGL
Briefly: MCP-1 Receptor Binding Assay in THP-1 Cells. Particulars: for IC50: THP-1 cells, 0.5 nM 125I labeled MCP-1, 2 hours at 30° C., read-out: Mean Ligand Binding IC50 (inhibition of MCP-1 binding to CCR2); for inhibition at 25 µM: MCP-1 binding to CCR2, test concentration of 25 μM, unless indicated otherwise, read-out: % Inhibition Ligand Binding. The method, boiled down:
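THP-1 cells; bound radioactivity collected on filter plates and counted by scintillation. Buffer-only blanks subtracted, drug-treated values compared with vehicle; nonspecific binding defined with 1 μM unlabeled MCP-1.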

As usually defined, the IC50 is the concentration at which inhibition is half-maximal. Regarding `C[N+](C)(Cc1ccc(NC(=O)c2cn(Cc3ccccc3)c3ccccc23)cc1)C1CCOCC1` [Cpd 162, {4-[(1-benzyl-1H-indole-3-carbonyl)-amino]-benzyl}-dimethyl-(tetrahydro-pyran-4-yl)-ammonium iodide], the IC50 was 1600 nM.
Still for that read-out and setting: to `Cn1c(C(=O)Nc2ccc(C[N+](C)(C)C3CCCCC3)cc2)cc2ccccc21` [Cpd 163, cyclohexyl-dimethyl-{4-[(1-methyl-1H-indole-2-carbonyl)-amino]-benzyl}-ammonium iodide] belongs 620 nM.
The same measure, in the same setting: the same measure for `C[N+](C)(Cc1ccc(NC(=O)c2cc3cc(Cl)ccc3[nH]2)cc1)C1CCCCC1` [Cpd 164, {4-[(5-chloro-1H-indole-2-carbonyl)-amino]-benzyl}-cyclohexyl-dimethyl-ammonium iodide]: 200 nM; for `C[N+](C)(Cc1ccc(NC(=O)c2cc3cc(Cl)ccc3[nH]2)cc1)C[C@@H]1CCCO1` [Cpd 165, (2S)-{4-[(5-chloro-1H-indole-2-carbonyl)-amino]-benzyl}-dimethyl-(tetrahydro-furan-2-ylmethyl)-ammonium iodide]: 3300 nM.
Still for that read-out and setting: to `C[N+](C)(Cc1ccc(NC(=O)c2cc3cc(Cl)ccc3[nH]2)cc1)CC1CC2CCC1C2` (stereo not shown) [Cpd 166, bicyclo[2.2.1]hept-2-ylmethyl-{4-[(5-chloro-1H-indole-2-carbonyl)-amino]-benzyl}-dimethyl-ammonium iodide] belongs 110 nM; to `C[N+](C)(Cc1ccc(NC(=O)C2=Cc3cc(Cl)c(Cl)cc3OCC2)cc1)C1CCOCC1` [Cpd 167, {4-[(7,8-dichloro-2,3-dihydro-benzo[b]oxepine-4-carbonyl)-amino]-benzyl}-dimethyl-(tetrahydro-pyran-4-yl)-ammonium iodide], 240 nM; to `C[N+](C)(Cc1ccc(NC(=O)C2=Cc3cc(Cl)c(Cl)cc3OCC2)cc1)C1CCCCC1` [Cpd 168, cyclohexyl-{4-[(7,8-dichloro-2,3-dihydro-benzo[b]oxepine-4-carbonyl)-amino]-benzyl}-dimethyl-ammonium iodide], 1000 nM.
For the molecule `C[N+](C)(Cc1ccc(NC(=O)C2=Cc3cc(Cl)c(Cl)cc3OCC2)cc1)C1CC2CCC1C2` (stereo not shown) [Cpd 169, bicyclo[2.2.1]hept-2-yl-{4-[(7,8-dichloro-2,3-dihydro-benzo[b]oxepine-4-carbonyl)-amino]-benzyl}-dimethyl-ammonium iodide], the IC50 turned out to be 240 nM.
What is called inhibition is the relative decrease from the control value, in per cent. Take `C[N+](C)(Cc1ccc(CNC(=O)C2=Cc3cc(Cl)c(Cl)cc3OCC2)cc1)C1CCOCC1` [Cpd 170, (4-{[(7,8-dichloro-2,3-dihydro-benzo[b]oxepine-4-carbonyl)-amino]-methyl}-benzyl)-dimethyl-(tetrahydro-pyran-4-yl)-ammonium iodide]: the inhibition at 25 µM turned out to be 36%.
For the molecule `C[N+](C)(Cc1ccc(NC(=O)C2=Cc3cc(Cl)c(Cl)cc3OCC2)cc1)C1CCSC1` (stereo not shown) [Cpd 171, {4-[(7,8-dichloro-2,3-dihydro-benzo[b]oxepine-4-carbonyl)-amino]-benzyl}-dimethyl-(tetrahydro-thiophen-3-yl)-ammonium iodide], the IC50 was 560 nM.
`C[N+](C)(Cc1ccc(NC(=O)c2cncc(Br)c2)cc1)C1CCOCC1` [Cpd 172, {4-[(5-bromo-pyridine-3-carbonyl)-amino]-benzyl}-dimethyl-(tetrahydro-pyran-4-yl)-ammonium iodide]: the inhibition at 25 µM was 17%.
As for `C[N+](C)(Cc1ccc(NC(=O)c2ccnc(Cl)c2)cc1)C1CCOCC1` [Cpd 173, {4-[(2-chloro-pyridine-4-carbonyl)-amino]-benzyl}-dimethyl-(tetrahydro-pyran-4-yl)-ammonium iodide], the IC50 came to 8100 nM.
On to `C[N+](C)(Cc1ccc(NC(=O)c2sc3ccccc3c2Cl)cc1)C1CCOCC1` [Cpd 174, {4-[(3-chloro-benzo[b]thiophene-2-carbonyl)-amino]-benzyl}-dimethyl-(tetrahydro-pyran-4-yl)-ammonium iodide], for which the inhibition at 25 µM amounted to 52%.
